The text below walks through data of patent US8575214B2, “MGlu 2/3 agonists” (Eli Lilly and Company, priority 2012, dated 2013).

For series [1] the following is noted: 1 h, 10 µM, pH 7.4.
Protocol: Frozen human duodenum intestinal homogenates (1:2 tissue:buffer ratio using 100 mM Tris Phosphate buffer, pH 7.4) are obtained from Celsius In Vitro Technologies (Baltimore, Md.) that were both phenylmethylsulphonylfluoride (PMSF) and EDTA free.
All original tissue collections are performed at 4° C. and immediately frozen at −70° C. Human intestinal homogenates are thawed and diluted to a final protein concentration of 0.5 mg/mL in 100 mM PBS buffer, pH 7.4 immediately prior to the incubations.
Incubations are conducted in 96-well plates and all prodrugs are run in duplicate on each day. Stock prodrug solutions are prepared in water at a concentration of 1 mM. A 200 μL aliquot of 0.5 mg/mL intestinal homogenate and 196 μL of 100 mM PBS buffer are placed in a 96-well plate in a 37° C. water bath. Using a 96-well pipettor, 4 μL of the 1 mM prodrug solution is transferred into the homogenate. Immediately after addition of the prodrug (time zero) and after 1 hour incubation, 50 μL samples of the incubation mixture are removed using an automated disposable simultaneous 96 well pipettor and added directly to 200 μL of methanol quench solution containing 100 ng/mL of Internal Standard. The samples are then centrifuged at 3500 rpm for 5 minutes at 10° C. The supernatant (200 μL) is transferred to a final 96 well PCR plate and sealed for analysis by LC/MS/MS.
Concentrations of hydrolyzed active metabolite in the incubation mixtures are determined using LC/MS/MS detection on a Sciex API 4000 quadrapole mass spectrometer with Analyst version 1.4.2, TurbolonSpray, positive ionization, and Selected Reaction Monitoring (SRM). […]
Averages and standard deviations are calculated using Microsoft® Office Excel® 2007. Amount of hydrolysis is determined as a molar percentage of active metabolite formed relative to prodrug concentration added.
For a further series, the target named is T1, hPepT1 (Homo sapiens, UniProt P46059).
T1 construct: expressed in transfected cells; host or cells: HeLa cells (ATCC), transient transfection with PepT1 DNA using FuGene6
T1 sequence (P46059 1-708): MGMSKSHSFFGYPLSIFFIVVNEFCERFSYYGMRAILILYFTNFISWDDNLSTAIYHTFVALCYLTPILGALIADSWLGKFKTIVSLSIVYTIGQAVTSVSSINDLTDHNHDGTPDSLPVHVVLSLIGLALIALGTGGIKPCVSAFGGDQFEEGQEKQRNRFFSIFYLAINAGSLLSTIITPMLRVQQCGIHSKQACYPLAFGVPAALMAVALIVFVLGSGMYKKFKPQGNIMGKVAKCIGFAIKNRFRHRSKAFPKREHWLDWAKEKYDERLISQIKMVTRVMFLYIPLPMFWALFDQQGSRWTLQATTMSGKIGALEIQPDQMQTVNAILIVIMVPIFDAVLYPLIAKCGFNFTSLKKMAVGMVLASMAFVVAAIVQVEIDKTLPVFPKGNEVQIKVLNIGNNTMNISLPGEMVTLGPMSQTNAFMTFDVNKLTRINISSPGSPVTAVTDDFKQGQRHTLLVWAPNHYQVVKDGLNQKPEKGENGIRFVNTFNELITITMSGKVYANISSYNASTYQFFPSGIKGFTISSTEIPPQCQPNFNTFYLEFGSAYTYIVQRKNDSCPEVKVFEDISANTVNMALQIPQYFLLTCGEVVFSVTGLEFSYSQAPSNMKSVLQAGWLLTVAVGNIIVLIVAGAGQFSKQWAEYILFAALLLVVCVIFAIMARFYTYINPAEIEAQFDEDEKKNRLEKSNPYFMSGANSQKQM
Nature of the series: In vitro PepT1 GlySar inhibition screen and IC50 determination. Type of series: cell-based. To be noted: PepT1 transiently transfected HeLa cells; for inhibition at 5000 µM: pH 6.0, 3 minutes, read-out: hPepT1 [3H]Gly-Sar uptake inhibition at 5 mM. As to the method:
HeLa cells, […], (American Type Culture Collection) are grown in Hyclone Medium (Invitrogen, Cat# SH30243) containing 10% fetal bovine serum (FBS), 0.1 mM non essential amino acids (NEAA), and 100 units/mL penicillin with 100 μg/mL streptomycin at 37° C. in a 5% CO2 humidified atmosphere. The cell line is used for up to 40 passages and then discarded. Frozen cells in 1 ml vials are thawed in water bath for 1-2 minutes and added to 5 mL of cell medium at 37° C. Each of the T-flasks is provided with 8.5 mL of the fresh medium and 1.5 mL of the cell stock. Cells are passaged twice during a week. This is achieved by rinsing the flasks with 10 mL of phosphate buffered saline-ethylene diaminetetra acetic acid (PBS-EDTA), adding 2 mL of trypsin for 2-5 minutes, to detach the cells, and adding 8 mL of fresh medium to inhibit further activity of trypsin. Each new flask receives a combination of 8.5 mL of fresh medium and 1.5 mL of cell stock, in order to obtain 1:6 cell dilution. Cells are incubated at 37° C., until ready for the uptake study.
Cells that are 70-80% confluent in the T-flasks are plated 1 day prior to the transfection procedure. The flask with the cell stock is treated with PBS-EDTA and trypsin to detach the cells, and transfection medium is used from this point. Transfection medium consists of Dulbecco's Modified Eagle Medium (DMEM)+NEAA. To each well, 0.5 mL of the cell mixture is added (1.3×10^5 is the desired cell concentration) and the cells are incubated at 37° C. overnight. Twenty four hours before the assay, cells are transfected with PEPT1. Transfection mixture is prepared by mixing 600 μL of serum free transfection medium, 18 μL of FuGene6 (Roche Diagnostics), and 11 μg of the PepT1 DNA. The transfection reagent-DNA complex is incubated for 20 minutes and 24 μL of the reagent-DNA complex is added to each well.
J. Pharm. Exper Ther. 310:437-445). […] Uptake media consists of 140 mM NaCl, 5.4 mM KCl, 1.8 mM CaCl2, 0.8 mM MgSO4, 5 mM Glucose, 25 mM tris(hydroxymethyl)aminomethane buffer (TRIS). The solution is then brought to pH 6.0 using 2-(N-morpholino)ethanesulfonic acid. The incubation volume is 500 μL and is performed at room temperature for 3 minutes. To stop the uptake at the conclusion of the incubation time, the uptake media is aspirated off of the cell monolayer and 500 μL of ice cold PBS added to the well. The cells are washed 3 times with 500 μL of room temperature PBS without Ca^+2 and Mg^+2. The cells are then lysed with 300 μL of 1% Triton X100 H2O solution. […] A no inhibitor control is established and the percent inhibition of each prodrug is calculated with respect to this control.
The incubation and sampling procedures are exactly the same as the PepT1 screen described above.

The subject of series [2] is male, Sprague-Dawley rats. Nature of the series: Reversal of phencyclidine (PCP)-induced hyperlocomotor activity in rats. Type of series: in vivo, rat. Conditions: Rattus norvegicus; p.o., overnight fasted rats, 4 hours prior to 5 mg/kg PCP. The source says:
Motor activity is monitored by placing individual male, Sprague-Dawley (Harlan, Indianapolis, Ind.) rats in transparent, plastic shoe-box cages of the dimensions 45×25×20 cm, with 1 cm depth of wood chips as bedding, and a metal grill on top of the cage. Motor monitors (Kinder Scientific) consist of a rectangular rack of 12 photobeams arranged in an 8×4 formation, (or a high density grouping of 22 in a 15×7 pattern) at a height of 5 cm, with a second rack (for measuring rearing behaviors) at a height of 15 cm. The shoe box cage is placed inside of these racks, with the racks on a 3 foot high tabletop in an isolated room. A compound of the invention (active) is dosed (intraperitoneal route) within a range of 0.3-10 mg/kg, 30 minutes prior to a 5 mg/kg challenge dose of phencyclidine (PCP). A compound of the invention (prodrug) is orally dosed within a range of 0.3-30 mg/kg, in overnight fasted rats, 4 hours prior to a 5 mg/kg challenge dose of PCP. On the test day, rats are placed in the test cage and allowed to acclimate for 30 minutes prior to PCP challenge; rats are monitored for an additional 60 minutes following PCP administration.
Data analysis and ED50 calculations are conducted using GraphPad Prism (San Diego, Calif. USA). Power analyses have determined that 8-10 rats per group are needed to have appropriate statistical power for detecting treatment differences (power=0.8). A one-way analysis of variance (ANOVA) with a post-hoc Dunnett's multiple comparison test is conducted on the total 60 minute locomotor activity. ED50 calculations are performed using non-linear regression curve fitting on percent reversal transformed data for each dose.

Structures are written as SMILES.

As to `CSCC[C@H](N)C(=O)N[C@@]1(C(=O)O)CC2(CC2)[C@H]2[C@H](C(=O)O)[C@H]21.Cl` [Example 6, (1S,2S,5R,6S)-2-[[(2S)-2-Amino-4-methylsulfanyl-butanoyl]amino]spiro[bi-cyclo[3.1.0]hexane-4,1′-cyclopropane]-2,6-dicarboxylic acid hydrochloride], the “human intestinal hydrolysis relative to Internal Prodrug A” value in series [1] stood at 44%. Further, at hPepT1 (0.0625 to 25 mM, read-out: hPepT1 [3H]Gly-Sar uptake inhibition IC50), the IC50 (usually the concentration needed to halve the response being measured) amounted to 250 µM. In addition, the inhibition – broadly, how much of the control response was suppressed – at 5000 µM at hPepT1 came to 87%. In addition, the ED50 (as a rule, the dose at which the effect has come halfway, by size or by number of responders) in series [2] came to 4.31 mg/kg.
As to `Cl.NCC(=O)N[C@@]1(C(=O)O)CC2(CC2)[C@H]2[C@H](C(=O)O)[C@H]21` [Example 7, (1S,2S,5R,6S)-2-[(2-Aminoacetyl)amino]spiro[bi-cyclo[3.1.0]hexane-4,1′-cyclo-propane]-2,6-dicarboxylic acid hydrochloride], the “human intestinal hydrolysis relative to Internal Prodrug A” value in series [1] stood at 34%. For the same molecule, the inhibition at 5000 µM at hPepT1 stood at 78%.
